Results as given in US20120004285A1, “ERBB-3 (HER3)-SELECTIVE COMBINATION THERAPY” (ENZON PHARMACEUTICALS, INC., priority 2008, published 2012).
Oligonucleotides are written 5' to 3', each unit as a sugar letter and its base; * is a phosphorothioate linkage, no mark a phosphodiester; rarer units and linkages stand in square brackets, end groups in braces. Plain capitals give the bases only. l = locked nucleic acid (LNA); [5mC] = 5-methylcytosine; d = 2'-deoxy (DNA)

Columns and labels:
Type in all cases: cell-based, human
[1] = system: H1993 cells; test: Cell proliferation assay (MTS), H1993; conditions: ON180 alone, Lipofectamine-2000 transfection, FIG. 2A, 2B, read-out: cell growth IC50
Protocol: (§1) Cells were routinely passaged 2-3 times weekly.
(§2) 15PC-3 (Santaris Pharma): The human prostate cancer cell line 15PC-3 was cultured in DMEM (ATCC)+10% fetal bovine serum (FBS)+2 mM Glutamax™ I+gentamicin (25 μg/ml). A549 (ATCC): The human lung cancer cell line A549 was cultured in F12K Medium (ATCC)+10% FBS+2 mM Glutamax™ I+Penicillin (100 u/ml)/Streptomycin (100 μg/ml). DU145 (ATCC): The human prostate cancer cell line DU145 was cultured in Eagle's Minimum Essential Medium (ATCC)+10% FBS+2 mM Glutamax™ I+Penicillin (100 u/ml)/Streptomycin (100 μg/ml). A431 (ATCC): The human epidermoid cancer cell line A431 was cultured in DMEM (ATCC)+10% fetal bovine serum (FBS)+2 mM Glutamax™ I+Penicillin (100 u/ml)/Streptomycin (100 μg/ml). SKBR-3 (ATCC): The human breast cancer cell line SKBR3 was cultured in McCoy's 5A Medium. Modified (ATCC)+10% FBS+2 mM Glutamax™ I+Penicillin (100 u/ml)/Streptomycin (100 μg/ml).
(§3) Cells were seeded in 6-well plates (NUNC™) and treated when 50-60% confluent. The transfection of cells by ON180 was performed as described by the manufacturer using serum-free OptiMEM® (Gibco™) and 5 μg/ml Lipofectamine™-2000. ONCONT served as a negative control. The treated cells were incubated at 37° C. for 4 hours and then washed with OptiMEM®, after which regular serum-containing medium was added.

[2] = system: ErbB3 mRNA; test: ErbB3 mRNA level by qRT-PCR in A431 cells; conditions: ON180 alone, FIG. 6C
Protocol: (§4) The cells were treated with either ON180 or an LNA-containing oligonucleotide having a scrambled base sequence as set forth in SEQ ID NO: 236 (hereinafter referred to as “ONCONT”) using the cationic liposome formulation Lipofectamine™-2000 (Invitrogen™) as transfection vehicle. Cells were seeded in 6-well plates (NUNC™) and treated when 50-60% confluent. The transfection of cells by ON180 was performed as described by the manufacturer using serum-free OptiMEM® (Gibco™) and 5 μg/ml Lipofectamine™-2000. ONCONT served as a negative control. The treated cells were incubated at 37° C. for 4 hours and then washed with OptiMEM®, after which regular serum-containing medium was added.
(§5) The treated cells were then subjected to proliferation assay by MTS and ErbB3 mRNA quantitation by qRT-PCR, respectively (see below). Each experiment was performed at least two times.
(§6) Total RNA was extracted from the treated cells as described above, using Qiagen RNeasy Plus Mini Kit (Cat# 74134). One-step qRT-PCR was used to examine ErbB3 mRNA levels in the cells by using the QuantiTect Probe RT-PCR kit (Cat#: 204443; Qiagen) according to the manufacturer's instructions. The sequences for the primers and probes were as follows: […]
(§7) The qRT-PCR was performed on the Applied Biosystems 7500 Fast Real-Time PCR System using 120 ng of total RNA sample. GAPDH mRNA served as an internal control.

[3] = system: DU145 cells; test: Cell proliferation assay (MTS), DU145; conditions: FIG. 4A
Protocol: (§8) Cells were cultured in the medium as described below and maintained at 37° C. at 95% humidity and 5% CO2. Cells were routinely passaged 2-3 times weekly.
(§9) 15PC-3 (Santaris Pharma): The human prostate cancer cell line 15PC-3 was cultured in DMEM (ATCC)+10% fetal bovine serum (FBS)+2 mM Glutamax™ I+gentamicin (25 μg/ml). A549 (ATCC): The human lung cancer cell line A549 was cultured in F12K Medium (ATCC)+10% FBS+2 mM Glutamax™ I+Penicillin (100 u/ml)/Streptomycin (100 μg/ml). DU145 (ATCC): The human prostate cancer cell line DU145 was cultured in Eagle's Minimum Essential Medium (ATCC)+10% FBS+2 mM Glutamax™ I+Penicillin (100 u/ml)/Streptomycin (100 μg/ml). […]
(§10) . The treated cells were then subjected to proliferation assay by MTS and ErbB3 mRNA quantitation by qRT-PCR, respectively (see below). […]
(§11) The proliferation assay was carried out by using CellTiter 96® Aqueous One solution reagent (Promega, Cat# 358B) following the manufacturer's instructions. […] The absorbance was measured at […] with a reference of 650 nm using an ELISA reader (Molecular Devices). The background for the assay was measured from wells containing only medium and was subtracted from the signal from the wells containing cells. The absorbance at 490 nm (OD490 nm) is proportional to the viable cell number in culture.

[4] = system: ErbB3 mRNA; test: ErbB3 mRNA level by qRT-PCR in SKBR3 cells; conditions: ON180 alone, FIG. 5C
Protocol: as §4, §5, §6, §7

[5] = system: ErbB3 mRNA; test: ErbB3 mRNA level by qRT-PCR in DU145 cells; conditions: ON180 alone, FIG. 4C
Protocol: as §4, §5, §6, §7

[6] = system: SKBR3 cells; test: Cell proliferation assay (MTS), SKBR3; conditions: FIG. 5A
Protocol: as §8, §9, §10, §11

[7] = system: ErbB3 mRNA; test: ErbB3 mRNA level by qRT-PCR in 15PC3 cells; conditions: ON180 alone, FIG. 3C
Protocol: as §4, §5, §6, §7

[8] = system: A549 cells; test: Cell proliferation assay (MTS), A549; conditions: FIG. 1A
Protocol: as §8, §9, §10, §11

[9] = system: ErbB3 mRNA; test: ErbB3 mRNA level by qRT-PCR in A549 cells; conditions: ON180 alone, FIG. 1C, read-out: expression of ErbB3 mRNA IC50
Protocol: as §4, §5, §6, §7

[10] = system: ErbB3 mRNA; test: ErbB3 mRNA level by qRT-PCR in H1993 cells; conditions: ON180 alone, FIG. 2C
Protocol: as §4, §5, §6, §7

[11] = system: A431 cells; test: Cell proliferation assay (MTS), A431; conditions: ON180 alone, Lipofectamine-2000 transfection, FIG. 6A, 6B, read-out: cell growth IC50
Protocol: as §1, §2, §3

[12] = system: 15PC3 cells; test: Cell proliferation assay (MTS), 15PC3; conditions: FIG. 3A
Protocol: as §8, §9, §10, §11

Compound	IC50 [1] [nM]	ErbB3 mRNA [2]	IC50 ([3]; ON180 alone, Lipofectamine-2000 transfection, 4B, read-out: cell growth IC50) [nM]	expression of ErbB3 mRNA [4]	expression of ErbB3 mRNA [5]	IC50 ([6]; ON180 alone, Lipofectamine-2000 transfection, 5B, read-out: cell growth IC50) [nM]	ErbB3 mRNA [7]	IC50 ([8]; ON180 alone, Lipofectamine-2000 transfection, 1B, read-out: cell growth IC50) [nM]	IC50 [9] [nM]	expression of ErbB3 mRNA [10]	IC50 [11] [nM]	IC50 ([12]; ON180 alone, Lipofectamine-2000 transfection, 3B, read-out: cell growth IC50) [nM]	effect of gefitinib on proliferation ([3]; gefitinib 40 μM, 48 hours)	sensitivity of cells to gefitinib ([6]; gefitinib alone)	effect of gefitinib alone on proliferation ([8]; gefitinib 40 μM, 48 hours)	effect of gefitinib on proliferation ([12]; gefitinib 20 μM, 48 hours)
5′-TsAsGscscstsgstscsascststs^MeCsTs^MeC-3′ (lT*lA*lG*dC*dC*dT*dG*dT*dC*dA*dC*dT*dT*l[5mC]*lT*l[5mC]) [ON180]	1	effectively inhibited	< 5	effectively inhibited	effectively inhibited	< 5	potently inhibited	< 5	< 2	potently inhibited	< 1	< 2	–	–	–	–
COc1cc2ncnc(Nc3ccc(F)c(Cl)c3)c2cc1OCCCN1CCOCC1 [gefitinib, reference compound]	–	–	–	–	–	–	–	–	–	–	–	–	did not affect proliferation	sensitive	did not affect proliferation	did not affect proliferation
